Measured values as given in publication PMC5389473, “DNA polymerase β contains a functional nuclear localization signal at its N-terminus” (Nucleic Acids Research, 2016).
Peptide text beside a SMILES is read from it. * marks the point of attachment. FITC = O=C1OC2(c3ccc(O)cc3Oc3cc(O)ccc32)c2ccc(NC(=S)*)cc21

Key:
[1] = target: T1, hImpα5ΔIBB (Homo sapiens, UniProt P52294); assay: Analytical gel filtration of lyase domain / hImpα5ΔIBB mixtures; assay type: binding; details: 2-fold excess lyase domain, Superdex 200 10/300 GL, 1 ml/min, 20 mM HEPES, 125 mM NaCl, 5 mM DTT, 1 mM EDTA, pH 7.4
T1 construct: human Importin α5, corresponding to residues 66–512, (hImpα5ΔIBB); His (C)
Description: (§1) For an initial assessment of binding, a sample of mImpα1ΔIBB was mixed with a 2.8-fold excess of pol β lyase domain and the sample was eluted on a HiLoad 26/60 Superdex 200 column (GE Healthcare) with a buffer containing 20 mM Tris-HCl, pH 7.8, 125 mM NaCl, 2 mM DTT, 1 mM ethylenediaminetetraacetic acid. For the analytical gel filtration experiments, hImpα5ΔIBB was mixed with 2-fold excess of wild-type or the NLS variant pol β(R4S,K5S) lyase domain and the samples were eluted on a Superdex 200 10/300 GL column (GE Healthcare) with a buffer containing 20 mM HEPES, 125 mM NaCl, 5mM DTT, 1mM ethylenediaminetetraacetic acid, pH 7.4.
Supplementary Figure S4. Interaction of the pol β lyase domain with Impα5. Analytical gel filtration experiments performed on mixtures of hImpa5DIBB and either wild-type or pol b(R4S,K5S) lyase domain.
For these experiments, hImpa5DIBB was mixed with 2-fold excess of wild-type or the NLS variant pol b(R4S,K5S) lyase domain and the samples were eluted at a flow rate of 1 ml/min on a Superdex 200 10/300 GL column (GE Healthcare) with a buffer containing 20 mM HEPES, 125 mM NaCl, 5mM DTT, […]
than Impa5DIBB alone; C) a mixture of Impa5DIBB with pol b(R4S,K5S) lyase domain elutes as two […]

[2] = system: mImpα1ΔIBB; assay: Gel filtration of lyase domain / mImpα1ΔIBB mixture; assay type: binding, murine; details: 2.8-fold excess lyase domain, HiLoad 26/60 Superdex 200, 20 mM Tris-HCl pH 7.8, 125 mM NaCl, 2 mM DTT, 1 mM EDTA
Description: as §1
Supplementary Figure S2. Interaction of pol β lyase domain with mImpα1DIBB. A sample of mImpα1DIBB was mixed with 2.8-fold excess of pol b lyase domain and the sample was eluted on a HiLoad 26/60 Superdex 200 column (GE Healthcare) with a buffer containing 20 mM Tris-HCL, pH 7.8, […]
125 mM NaCl, 2 mM DTT, 1 mM EDTA. […]
which contain both proteins while the excess pol b lyase domain elutes in fractions 41-43.
(1 picture or pasted object on this page, not shown here)

[3] = system: mImpα1ΔIBB; assay: 1H-15N HSQC NMR binding study; parameters: species or system murine; details: 130 μM protein, equal concentration mImpα1ΔIBB; 50 mM Tris-d11 pH 7.6, 150 mM KCl; 25°C
Description: For the mImpα1ΔIBB binding experiments, the samples contained 0.13 mM U-[^2H,^15N]pol β and 0.13 mM mImpα1ΔIBB in a buffer consisting of 50 mM Tris-d11 (pH 7.6), 150 mM KCl, 1 mM CDTA, 1 mM dithiothreitol (DTT), 0.1 mM AEBSF, 0.04% NaN3 and 50 μM DSS as an internal chemical shift standard, with 10% D2O for ^1H-^15N HSQC experiments and 100% D2O for ^1H-^13C HSQC experiments. For studies of the effects of the R4S,K5S mutation on pol β structure and function, the [methyl-^13C]methionine-labeled pol β samples contained 0.1 mM pol β or the NLS-variant in the above 100% D2O buffer along with 0.11 mM of a 1-nucleotide gapped double-hairpin DNA substrate and 0.14 mM of the non-hydrolyzable nucleoside triphosphate substrate dAPCPP. Nuclear magnetic resonance (NMR) experiments were performed at 25°C on a Varian UNITY INOVA 600 or 800 MHz NMR spectrometer, using a 5 mm Varian ^1H{^13C,^15N} triple-resonance room-temperature or Cold Probe, equipped with actively shielded Z-gradients. The ^1H-^13C HSQC spectra were acquired using Varian's gChsqc sequence. The spectra were processed using NMRPipe version 2.1 ([64]) and analyzed using NMRView version 5.0.4 ([65]). All spectra were processed using squared cosine bell apodization functions in all dimensions and forward-backward linear prediction in the indirect dimension ([66]).
Figure 1. […]

[4] = target: T1, hImpα5ΔIBB; assay: Ligand displacement (competition) of FITC-labeled NLS peptide by lyase domain; assay type: binding; details: relative to value with mImpα1ΔIBB
Description: His-tagged mImpα1 with the Importin β binding domain (IBB) deleted (mImpα1ΔIBB) and its major pocket variant (mImpα1ΔIBB[W184R/W231R]) were prepared as described previously ([56]). The minor binding pocket double mutant (mImpα1ΔIBB[W357R/W399R]) was created using the QuikChange kit (Agilent). C-terminal His-tagged human Importin α5, corresponding to residues 66–512, (hImpα5ΔIBB) was purchased from Genscript and cloned into the pET30 expression vector. All clones were sequence verified. mImpα1ΔIBB[W357R/W399R] and hImpα5ΔIBB were expressed and purified by the IMAC and gel filtration protocol previously described ([56]). Protein concentrations were determined by the Edelhoch procedure ([63]).
(§2) Apparent peptide dissociation constants were determined based on fluorescence polarization measurements using the fluorescein-labeled pol β NLS peptide as previously described ([56]). The binding constants for the interaction of pol β lyase domain with the Importin α constructs were determined by displacement of the FITC-labeled NLS peptide using a competition assay as previously described ([56]).
Figure 3. Binding of the pol β lyase domain to mImpα1ΔIBB and hImpα5ΔIBB. […] The initial fluorescence polarization value corresponds to the fraction of NLS peptide complexed with Impα, so that 100 would correspond to a fully complexed peptide. […]

[5] = target: T2, mImpα1ΔIBB (Mus musculus, UniProt P52293); assay: Fluorescence polarization, direct binding of FITC-labeled pol β NLS peptide; parameters: species or system murine; details: abstract, peptide corresponding to pol β residues 2–13
T2 construct: His; made in house
Excerpt: The fluorescein-labeled pol β NLS peptide: S^3[…]^14-Lys(FITC), used for fluorescence polarization assays, was obtained from Genscript at a purity level of > 90%. Methyl methanesulfonate (MMS) was from Sigma-Aldrich. Following a strategy used previously ([61]), we studied a pol β complex with a double-hairpin that forms a one-nucleotide gapped DNA substrate with the following sequence: 5΄-^[…]-3΄ (underlined nucleotide is in the gap). The oligonucleotide was from Oligos Etc., Wilsonville, OR, USA. The non-hydrolyzable deoxynucleoside triphosphate 2΄-deoxyadenosine-5΄-[(α,β)-methyleno]triphosphate (dAPCPP) was obtained from Jena Bioscience.
His-tagged mImpα1 with the Importin β binding domain (IBB) deleted (mImpα1ΔIBB) and its major pocket variant (mImpα1ΔIBB[W184R/W231R]) were prepared as described previously ([56]). […] Protein concentrations were determined by the Edelhoch procedure ([63]).
as §2

T1 sequence (P52294 66-512, stated change not applied): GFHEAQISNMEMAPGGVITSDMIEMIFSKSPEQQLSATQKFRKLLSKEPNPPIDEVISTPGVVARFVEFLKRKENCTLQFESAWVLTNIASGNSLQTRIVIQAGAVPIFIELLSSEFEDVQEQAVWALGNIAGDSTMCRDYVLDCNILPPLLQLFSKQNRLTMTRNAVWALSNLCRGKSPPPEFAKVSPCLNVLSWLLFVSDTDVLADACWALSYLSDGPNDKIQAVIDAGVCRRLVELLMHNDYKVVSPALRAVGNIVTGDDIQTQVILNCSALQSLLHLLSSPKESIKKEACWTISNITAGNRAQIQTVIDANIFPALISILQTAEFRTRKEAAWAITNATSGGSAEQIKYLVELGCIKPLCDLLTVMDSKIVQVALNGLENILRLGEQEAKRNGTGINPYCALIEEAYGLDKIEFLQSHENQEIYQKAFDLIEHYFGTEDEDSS

Compound	complex formation by analytical gel filtration ([1]; listed as pol b lyase domain)	complex formation by analytical gel filtration ([1]; listed as wild-type lyase domain)	complex formation by gel filtration [2]	complex formation by gel filtration ([2]; listed as pol b lyase domain)	effect of mImpα1ΔIBB on 1H-15N HSQC resonances [3]	increase in affinity, hImpα5ΔIBB vs mImpα1ΔIBB [4] [fold]	Kd (in words) [5]
Pol β lyase domain: N-terminal lyase domain of pol β (residues 2–87)	a complex of Impa5DIBB with pol b lyase domain elutes earlier	does elute as a complex	indicated an interaction between the two proteins	the complex elutes in fractions 28-32	broadened lyase domain amide resonances	8	
CC(C)C[C@H](NC(=O)[C@@H](NC(=O)[C@H](CCC(=O)O)NC(=O)[C@H](CCC(N)=O)NC(=O)[C@@H]1CCCN1C(=O)[C@H](C)NC(=O)[C@H](CCCCN)NC(=O)[C@H](CCCNC(=N)N)NC(=O)[C@H](CCCCN)NC(=O)[C@@H](N)CO)[C@@H](C)O)C(=O)N[C@@H](CC(N)=O)C(=O)NCC(=O)NCC(=O)N[C@@H](CCCCNC(=S)Nc1ccc2c(c1)C(=O)OC21c2ccc(O)cc2Oc2cc(O)ccc21)C(=O)O (H-SKRKAPQETLNGGK(FITC)-OH)							low micromolar Kd
